Test results: patent US7883893B2, “Method to assay test substances” (priority 2005, dated 2011)
Values joined by “and” are separate entries in the source; they are usually repeats but may differ in a detail not shown here. Equal entries are not always repeated. “Also recorded” adds a separate entry of the source. One block for each compound: values may come before it.

Experiments:
Format in all cases: cell-based
Kir2.1Y channel [1] = assay: FRAC: recovery of Kir2.1Y channel activity (Rb+ efflux) after MTSET chemobleaching
Description: To assay the transit time of nacently surfaced receptor, we first modify, inhibit, or change (pulse) accessible functional molecules on the cell surface and then monitor the recovery of the original function/activity at subsequent time points (chase). One thus may determine the time required to populate the cell surface with newly inserted cell surface molecules (FIG. 1). Designing versions of this assay involves consideration of at least four factors. (i) A functional assay preferably monitors activity predominantly or only from molecules on the cell surface. […] (iii) The activity detection should be relatively short compared with the time required to repopulate the cell surface with functional molecules. (iv) The pulse should be rapid, quantitative, and optionally irreversible, thereby allowing detection of the activity contributed only by the newly arrived (or newly activated) proteins on the cell surface. These are considerations only, rather than mandatory properties. Deviation from one of these considerations may involve compensation by another. Furthermore, one of ordinary skill in the art will appreciate that treatment of cell surfaces can be restricted to a desirable area, such as the apical surface of epithelial cells. Thus, spatially restricted populations of cell surface receptors can be affected.
Rb^+ Flux Assay and Atomic Absorption Spectrometry. All assays shown were performed at room temperature in poly(L-lysine) (0.1 mg/ml)-coated 24-well microplates. For experiments with transiently transfected cells, ˜1×10^5 cells were seeded in each well the day before transfection (0.3 μg of DNA per well). Sodium butyrate at 5 mM was added 6-8 h after transfection. The assays were performed 24 h after transfection. […]
Rb^+ Efflux. […] The Rb^+ concentration in each sample was analyzed using the ICR 8000. Rb^+ efflux (%) was determined as: 100%×[Rb^+]sup/([Rb^+]sup+[Rb^+]lysate) where [Rb^+]sup represents the Rb^+ concentration in the supernatant, and [Rb^+]lysate represents the Rb^+ concentration in the cell lysate. […]

Kir2.1Y channel [2] = assay: Rb+ efflux of 293 cells stably expressing Kir2.1Y incubated with BFA without MTSET treatment
Experimental: (§1) Rb^+ Flux Assay and Atomic Absorption Spectrometry. All assays shown were performed at room temperature in poly(L-lysine) (0.1 mg/ml)-coated 24-well microplates. For experiments with transiently transfected cells, ˜1×10^5 cells were seeded in each well the day before transfection (0.3 μg of DNA per well). Sodium butyrate at 5 mM was added 6-8 h after transfection. The assays were performed 24 h after transfection. HEK 293 cells stably expressing either Kir2.1 or Kir2.1Y channel were seeded with a cell density of 2×10^5 cells per well. To enhance expression, 5 mM sodium butyrate was added 4-6 h after seeding. Cells then were cultured continuously for 16-20 h before experiments.
Rb^+ Efflux. To load Rb^+ into cells, we incubated cells in 0.5 ml per well 50/50 DMEM/F12 complete growth medium containing ˜5 mM RbCl at 37° C. for 3-4 h. Cells then were washed twice quickly with 1 ml per well non-Rb^+ medium to remove residual Rb^+. […] The Rb^+ concentration in each sample was analyzed using the ICR 8000. Rb^+ efflux (%) was determined as: 100%×[Rb^+]sup/([Rb^+]sup+[Rb^+]lysate) where [Rb^+]sup represents the Rb^+ concentration in the supernatant, and [Rb^+]lysate represents the Rb^+ concentration in the cell lysate. […]

Kir2.1 = assay: Rb+ efflux of 293 cells stably expressing Kir2.1 incubated with BFA without MTSET treatment; conditions: BFA 3 h, absence of MTSET treatment (data not shown)
Experimental: as §1
Rb^+ Efflux. […] The Rb^+ concentration in each sample was analyzed using the ICR 8000. Rb^+ efflux (%) was determined as: 100%×[Rb^+]sup/([Rb^+]sup+[Rb^+]lysate) where [Rb^+]sup represents the Rb^+ concentration in the supernatant, and [Rb^+]lysate represents the Rb^+ concentration in the cell lysate.
In the case of Kir2.1, we observed reproducible ˜30% reduction over the same period of incubation (data not shown). […] For Kir2.1Y, the combination of quantitative elimination of surface channel activity by MTSET, the >90% activity recovery, and little detectable reduction of Rb^+ efflux in the presence of BFA then would predict a 2-fold increase of protein signal on the cell surface. […]

Kir2.1Y channel [3] = assay: Rb+ influx assay of HEK 293 cells transiently transfected with Kir2.1Y, with MTSET treatment; conditions: MTSET treatment before the assay (2.5 mM per FIG. 2 legend)
Experimental: as §1
Rb^+ Influx. To perform the assay, cells first were incubated in 50/50 DMEM/F12 complete growth medium containing 5 mM RbCl for the indicated time periods before the medium was quickly aspirated. Cells then were washed twice quickly with non-Rb^+ DMEM/F12 medium and lysed with 0.5 ml of 0.1% SDS per well. The Rb^+ concentration in cell lysates was measured by atomic absorption spectrophotometry (ICR8000, Aurora Biomed, Vancouver), according to the manufacturer's user manual.
(§2) To monitor the specificity of the Rb^+ assay and the effectiveness of Rb^+ detection by atomic absorption spectrometry (19), we measured the Rb^+ uptake signals of transiently transfected cells at different times of incubation. […]

wild-type Kir2.1 = target: T1, wild-type Kir2.1 (Homo sapiens, UniProt P63252); assay: Rb+ flux assay of wild-type Kir2.1 with MTSET
T1 sequence (P63252 1-427): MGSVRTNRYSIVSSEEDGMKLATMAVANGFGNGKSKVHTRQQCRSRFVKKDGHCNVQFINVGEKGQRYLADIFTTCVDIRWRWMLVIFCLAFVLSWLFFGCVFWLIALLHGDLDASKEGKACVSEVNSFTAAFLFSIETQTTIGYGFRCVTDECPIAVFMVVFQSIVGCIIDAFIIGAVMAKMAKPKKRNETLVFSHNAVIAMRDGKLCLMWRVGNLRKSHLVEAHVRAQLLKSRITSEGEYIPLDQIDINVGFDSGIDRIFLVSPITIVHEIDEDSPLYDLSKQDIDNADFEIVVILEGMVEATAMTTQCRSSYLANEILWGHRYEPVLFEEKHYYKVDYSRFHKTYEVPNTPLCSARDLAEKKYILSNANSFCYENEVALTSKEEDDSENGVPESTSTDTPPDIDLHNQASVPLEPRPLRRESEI
Description: (§3) Earlier reports using electrophysiological recording have shown that membrane-nonpermeable MTS reagents such as MTSET reduce or abolish the current of Kir2.1 by covalently modifying the reduced form of cysteine residues already present in the channel protein or introduced by site-directed mutagenesis (18). It is not known whether or to what extent the modifications by MTS reagents will affect channel activity measured by a Rb^+ flux assay. We tested several cysteine positions of Kir2.1 mutants using MTSET, a positively charged cysteinyl sulfhydryl-specific reagent.

Kir2.1Y channel [4] = assay: Rb+ efflux assay of 293 cells stably expressing Kir2.1Y, with MTSET treatment; conditions: stable Kir2.1Y line, FIG. 2c
Experimental: as §1
Rb^+ Efflux. To load Rb^+ into cells, we incubated cells in 0.5 ml per well 50/50 DMEM/F12 complete growth medium containing ˜5 mM RbCl at 37° C. for 3-4 h. […] The Rb^+ concentration in each sample was analyzed using the ICR 8000. Rb^+ efflux (%) was determined as: 100%×[Rb^+]sup/([Rb^+]sup+[Rb^+]lysate) where [Rb^+]sup represents the Rb^+ concentration in the supernatant, and [Rb^+]lysate represents the Rb^+ concentration in the cell lysate.
as §2

Kir2.1 mutation of C149 = assay: Electrophysiological recording and Rb+ assay of Kir2.1 C149 mutant with MTSET; conditions: electrophysiological recording and Rb+ assay (data not shown)
Description: as §3

SMILES: C[C@H]1CCC/C=C/[C@@H]2C[C@H](O)C[C@H]2[C@H](O)/C=C/C(=O)O1 [BFA, Brefeldin A]
activity recovery (Kir2.1Y channel [1]; 1 μM BFA at 37° C. for 3 h, added immediately after 5-min MTSET treatment (FIG. 5a)): < 20% and 20%
BFA concentration at which the effect reaches a plateau (Kir2.1Y channel [1]; recovery at 3 h, 37° C., FIG. 5b): > 0.6 µM
sensitivity of surface channel activity to BFA concentrations (Kir2.1Y channel [2]; absence of MTSET treatment, 3-h incubation, FIG. 5b): no sensitivity
effect on activity of channels already on the cell surface (Rb+ efflux) (Kir2.1Y channel [2]; without MTSET treatment, 3-h incubation with BFA): did not affect the activity; also recorded: did not result in a detectable reduction
reduction of Rb+ efflux activity (Kir2.1): ~30%

effect of MTSET on channel activity (wild-type Kir2.1): quantitatively nullified
SMILES: C[N+](C)(C)CCSS(C)(=O)=O.[Br-] [MTSET, [2-(trimethylammonium)ethyl]methanethiosulfonate bromide]
specific Rb+ uptake signal abolished (Kir2.1Y channel [3]): > 80%
Rb+ efflux signal after MTSET treatment (Kir2.1Y channel [4]): only background signals were observed
sensitivity to MTSET (Kir2.1 mutation of C149): loss of sensitivity

SMILES: C[C@@H]1C[C@@H]([C@H](O)CC2CC(=O)NC(=O)C2)C(=O)[C@@H](C)C1 [cycloheximide]
activity recovery (Kir2.1Y channel [1]; cycloheximide in FRAC experiments (data not shown)): 40%
